In PubChem BioAssay (NCI):
Where “and” joins values, the source holds several entries; their conditions need not be identical. Equal entries are not always repeated.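 Assay format: 96-well plates, 48-hour exposure. TGI marks complete inhibition of growth.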

Experiments:
Experiment in all cases: growth of human tumour cells (NCI), 48 h
HS 578T breast = tested on: HS 578T breast
RPMI-8226 leukemia = tested on: RPMI-8226 leukemia
SK-MEL-28 melanoma = tested on: SK-MEL-28 melanoma
SNB-75 CNS = tested on: SNB-75 CNS
RXF 393 renal = tested on: RXF 393 renal
HL-60(TB) leukemia = tested on: HL-60(TB) leukemia
DU-145 prostate = tested on: DU-145 prostate
CCRF-CEM leukemia = tested on: CCRF-CEM leukemia
UO-31 renal = tested on: UO-31 renal
SF-539 CNS = tested on: SF-539 CNS
SNB-19 CNS = tested on: SNB-19 CNS

## NC(N)=Nc1ccc(CC(N)C(=O)O)cc1 (stereo not given)
HS 578T breast
  TGI: > 12.5 µM
RPMI-8226 leukemia
  TGI: > 12.5 µM
SK-MEL-28 melanoma
  TGI: > 12.5 µM
SNB-75 CNS
  TGI: > 12.5 µM
RXF 393 renal
  TGI: > 12.5 µM
HL-60(TB) leukemia
  TGI: > 12.5 µM
DU-145 prostate
  TGI: > 12.5 µM
CCRF-CEM leukemia
  TGI: > 12.5 µM
UO-31 renal
  TGI: > 12.5 µM

## O=C1CSC(c2cccc([N+](=O)[O-])c2)N1c1ccc(-n2c(-c3ccccc3)nc3ccccc3c2=O)cc1 (stereo not given)
HS 578T breast
  TGI: > 100 µM
RPMI-8226 leukemia
  TGI: > 100 µM
SK-MEL-28 melanoma
  TGI: > 100 µM
HL-60(TB) leukemia
  TGI: > 100 µM
SF-539 CNS
  TGI: > 100 µM
DU-145 prostate
  TGI: > 100 µM
CCRF-CEM leukemia
  TGI: > 100 µM
SNB-19 CNS
  TGI: > 100 µM
UO-31 renal
  TGI: 65.6 µM

## O=[N+]([O-])c1cc(-c2nc(-c3ccccc3)c(-c3ccccc3)[nH]2)c(O)c([N+](=O)[O-])c1
HS 578T breast
  TGI: > 100 µM
RPMI-8226 leukemia
  TGI: 75.1 µM
SK-MEL-28 melanoma
  TGI: > 100 µM
SNB-75 CNS
  TGI: 60 µM
RXF 393 renal
  TGI: 44.8 µM
HL-60(TB) leukemia
  TGI: 70.1 µM
SF-539 CNS
  TGI: 41.5 µM
DU-145 prostate
  TGI: 55.4 µM
CCRF-CEM leukemia
  TGI: 72.7 µM
SNB-19 CNS
  TGI: > 100 µM
UO-31 renal
  TGI: 33.4 µM

## O=C1CC(c2ccccc2)n2cccc21 (stereo not given)
HS 578T breast
  TGI: > 100 µM
RPMI-8226 leukemia
  TGI: > 100 µM
SK-MEL-28 melanoma
  TGI: > 100 µM
SNB-75 CNS
  TGI: > 100 µM
RXF 393 renal
  TGI: > 100 µM
HL-60(TB) leukemia
  TGI: > 100 µM
SF-539 CNS
  TGI: > 100 µM
DU-145 prostate
  TGI: > 100 µM
CCRF-CEM leukemia
  TGI: > 100 µM
SNB-19 CNS
  TGI: > 100 µM
UO-31 renal
  TGI: > 100 µM

## CCCCn1c2c(n(CCCC)c1=S)-c1c(n(CCCC)c(=S)n1CCCC)SSc1c(n(CCCC)c(=S)n1CCCC)-c1c(n(CCCC)c(=S)n1CCCC)SSc1c(n(CCCC)c(=S)n1CCCC)-c1c(n(CCCC)c(=S)n1CCCC)SS2
HS 578T breast
  TGI: > 50 µM
RPMI-8226 leukemia
  TGI: > 50 µM
SK-MEL-28 melanoma
  TGI: > 50 µM
SNB-75 CNS
  TGI: > 50 µM
RXF 393 renal
  TGI: > 50 µM
HL-60(TB) leukemia
  TGI: 4.46 µM
SF-539 CNS
  TGI: > 50 µM
DU-145 prostate
  TGI: > 50 µM
CCRF-CEM leukemia
  TGI: > 14.7 µM
SNB-19 CNS
  TGI: > 50 µM
UO-31 renal
  TGI: 16.5 µM

## COC(=O)C1OC(O[C@H]2CC[C@]3(C)[C@H]4CC=C5[C@@H]6CC(C)(C)CC[C@]6(C(=O)OC6OCC(O)C(O)C6OC6OC(C)C(OC7OCC(O)C(O)C7O)C(O)C6O)CC[C@@]5(C)[C@]4(C)CC[C@H]3C2(C)C)C(O)C(O)C1O (stereo not given in full)
HS 578T breast
  TGI: 39.4 µM and 35.9 µM
RPMI-8226 leukemia
  TGI: > 100 µM and 42 µM
SK-MEL-28 melanoma
  TGI: 27.8 µM and 30.5 µM
SNB-75 CNS
  TGI: 30 µM and 30.4 µM
RXF 393 renal
  TGI: 37 µM and 40.7 µM
HL-60(TB) leukemia
  TGI: 41.3 µM and 35.1 µM
DU-145 prostate
  TGI: 33.7 µM and 47.8 µM
CCRF-CEM leukemia
  TGI: 53.5 µM and 47.2 µM
SNB-19 CNS
  TGI: 31.2 µM and 27.2 µM
UO-31 renal
  TGI: 26.5 µM and 36 µM

## C=C1CCC([N+](=O)[O-])[C@](C)(N=O)CC[C@@H]2C1CC2(C)C (stereo not given in full)
HS 578T breast
  TGI: 39 µM
RPMI-8226 leukemia
  TGI: > 100 µM
SNB-75 CNS
  TGI: 45.3 µM
HL-60(TB) leukemia
  TGI: > 100 µM
DU-145 prostate
  TGI: > 100 µM
CCRF-CEM leukemia
  TGI: > 100 µM
SNB-19 CNS
  TGI: 77.9 µM
UO-31 renal
  TGI: 31.7 µM

## COc1cc(Cc2nccc3cc(OC)c(OC)cc23)c(N=NN(C)C)cc1OC
HS 578T breast
  TGI: 86.5 µM
RPMI-8226 leukemia
  TGI: 39.7 µM
SK-MEL-28 melanoma
  TGI: 31.1 µM
SNB-75 CNS
  TGI: > 100 µM
RXF 393 renal
  TGI: 16.4 µM
DU-145 prostate
  TGI: 35.7 µM
CCRF-CEM leukemia
  TGI: 9.33 µM
SNB-19 CNS
  TGI: 85.2 µM
UO-31 renal
  TGI: 44.8 µM

## COC(=O)C1(C)C=CC(=O)C2(C)C1C(O)C1OC3CC(c4ccoc4)C(C)=C3C1(C)C2CC(=O)O (stereo not given)
HS 578T breast
  TGI: > 100 µM
RPMI-8226 leukemia
  TGI: > 100 µM
SK-MEL-28 melanoma
  TGI: > 100 µM
SNB-75 CNS
  TGI: > 100 µM
HL-60(TB) leukemia
  TGI: > 100 µM
SF-539 CNS
  TGI: > 100 µM
DU-145 prostate
  TGI: > 100 µM
CCRF-CEM leukemia
  TGI: > 100 µM
SNB-19 CNS
  TGI: > 100 µM
UO-31 renal
  TGI: > 100 µM

## CCOC(=O)c1c(N2CCOCC2)[nH]c(=O)c(C(c2ccco2)c2c(O)c(C(=O)OCC)c(N3CCOCC3)[nH]c2=O)c1O
HS 578T breast
  TGI: > 100 µM
RPMI-8226 leukemia
  TGI: > 100 µM
SK-MEL-28 melanoma
  TGI: > 100 µM
SNB-75 CNS
  TGI: > 100 µM
RXF 393 renal
  TGI: > 100 µM
SF-539 CNS
  TGI: > 100 µM
DU-145 prostate
  TGI: > 100 µM
CCRF-CEM leukemia
  TGI: > 100 µM
SNB-19 CNS
  TGI: > 100 µM
UO-31 renal
  TGI: > 100 µM

## Cc1cn(CC2=NCC(C)N2)c(=O)[nH]c1=O (stereo not given)
HS 578T breast
  TGI: > 100 µM
RPMI-8226 leukemia
  TGI: > 100 µM
SK-MEL-28 melanoma
  TGI: > 100 µM
SNB-75 CNS
  TGI: > 100 µM
RXF 393 renal
  TGI: > 100 µM
DU-145 prostate
  TGI: > 100 µM
SNB-19 CNS
  TGI: > 100 µM
UO-31 renal
  TGI: > 100 µM

## O=C(O)CN1C(=O)C(Cc2ccc(O)cc2)N=C(c2cccc(O)c2)c2ccccc21 (stereo not given)
HS 578T breast
  TGI: > 100 µM
RPMI-8226 leukemia
  TGI: > 100 µM
SK-MEL-28 melanoma
  TGI: > 100 µM
SNB-75 CNS
  TGI: > 100 µM
HL-60(TB) leukemia
  TGI: > 100 µM
SF-539 CNS
  TGI: > 100 µM
DU-145 prostate
  TGI: > 100 µM
SNB-19 CNS
  TGI: > 100 µM
UO-31 renal
  TGI: > 100 µM

## CC(C)(C)OC(=O)N1C(c2cccnc2)=CC[C@H]2C3CC=C(c4cccnc4)[C@@]3(C)CC[C@@H]21 (stereo not given in full)
HS 578T breast
  TGI: 24.7 µM
RPMI-8226 leukemia
  TGI: 5.05 µM
SNB-75 CNS
  TGI: 19.7 µM
RXF 393 renal
  TGI: 14.6 µM
HL-60(TB) leukemia
  TGI: 14 µM
SF-539 CNS
  TGI: 14.8 µM
DU-145 prostate
  TGI: 19.2 µM
CCRF-CEM leukemia
  TGI: 25.8 µM
SNB-19 CNS
  TGI: 17.2 µM
UO-31 renal
  TGI: 17.3 µM

## C=CCc1cccc2cc(C(=O)Nc3ccccn3)c(=N)oc12
HS 578T breast
  TGI: > 100 µM
RPMI-8226 leukemia
  TGI: > 100 µM
SK-MEL-28 melanoma
  TGI: > 100 µM
SNB-75 CNS
  TGI: > 100 µM
RXF 393 renal
  TGI: > 100 µM
HL-60(TB) leukemia
  TGI: > 100 µM
SF-539 CNS
  TGI: > 100 µM
DU-145 prostate
  TGI: > 100 µM
CCRF-CEM leukemia
  TGI: > 100 µM
SNB-19 CNS
  TGI: > 100 µM

## O=C1C(c2c(O)[nH]c3ccc(Br)cc23)=Nc2ccccc21
HS 578T breast
  TGI: 54.6 µM
RPMI-8226 leukemia
  TGI: > 100 µM
SK-MEL-28 melanoma
  TGI: > 100 µM
SNB-75 CNS
  TGI: 28.4 µM
RXF 393 renal
  TGI: 6.47 µM
HL-60(TB) leukemia
  TGI: > 100 µM
DU-145 prostate
  TGI: 27.2 µM
CCRF-CEM leukemia
  TGI: > 100 µM
SNB-19 CNS
  TGI: 28.1 µM
UO-31 renal
  TGI: 12.3 µM

## CCCC(=O)OC1C(CO)OC(n2cc(F)c(=O)[nH]c2=O)C1F (stereo not given)
HS 578T breast
  TGI: > 100 µM
RPMI-8226 leukemia
  TGI: > 100 µM
SK-MEL-28 melanoma
  TGI: > 100 µM
SNB-75 CNS
  TGI: > 100 µM
RXF 393 renal
  TGI: > 100 µM
HL-60(TB) leukemia
  TGI: > 100 µM
SF-539 CNS
  TGI: > 100 µM
DU-145 prostate
  TGI: > 100 µM
CCRF-CEM leukemia
  TGI: > 100 µM
UO-31 renal
  TGI: > 100 µM

## CC1(C)CCC[C@]2(C)[C@H]3[C@H](C#N)c4cc(O)c(O)cc4O[C@@]3(C)CC[C@@H]12
HS 578T breast
  TGI: > 10 µM
RPMI-8226 leukemia
  TGI: > 10 µM
SK-MEL-28 melanoma
  TGI: > 10 µM
RXF 393 renal
  TGI: > 10 µM
HL-60(TB) leukemia
  TGI: > 10 µM
SF-539 CNS
  TGI: > 10 µM
DU-145 prostate
  TGI: > 10 µM
CCRF-CEM leukemia
  TGI: > 10 µM
SNB-19 CNS
  TGI: > 10 µM
UO-31 renal
  TGI: > 10 µM

## Cc1ccc2c(c1)-c1nc(N)c(C#N)c(-c3ccccc3)c1CCS2(=O)=O
HS 578T breast
  TGI: 68.1 µM
RPMI-8226 leukemia
  TGI: > 100 µM
SK-MEL-28 melanoma
  TGI: > 100 µM
SNB-75 CNS
  TGI: 81.8 µM
DU-145 prostate
  TGI: > 100 µM
SNB-19 CNS
  TGI: 67.7 µM
UO-31 renal
  TGI: > 100 µM

## NC(=S)N/N=C\c1nccc2ccccc12
HS 578T breast
  TGI: > 100 µM
RPMI-8226 leukemia
  TGI: 4.72 µM
SK-MEL-28 melanoma
  TGI: 0.951 µM
HL-60(TB) leukemia
  TGI: 40.4 µM
SF-539 CNS
  TGI: 0.455 µM
DU-145 prostate
  TGI: > 100 µM
SNB-19 CNS
  TGI: > 100 µM
UO-31 renal
  TGI: 3.63 µM

## Cc1ccccc1S(=O)(=O)Nn1cnc2ccc(S(=O)(=O)Nc3ccc(Cl)cc3)cc2c1=O
HS 578T breast
  TGI: > 100 µM
RPMI-8226 leukemia
  TGI: > 100 µM
SK-MEL-28 melanoma
  TGI: > 100 µM
SNB-75 CNS
  TGI: > 100 µM
HL-60(TB) leukemia
  TGI: > 100 µM
SF-539 CNS
  TGI: > 100 µM
DU-145 prostate
  TGI: > 100 µM
CCRF-CEM leukemia
  TGI: > 100 µM
SNB-19 CNS
  TGI: > 100 µM
UO-31 renal
  TGI: > 100 µM
